Where two headings read alike, the source gives them in different places. Where only a bound is given, the exact number is not on record here.

The subject of data set [1] is adrenocortical steroid synthesis. The data set is described as follows: ACTH-stimulation test in dexamethasone-suppressed rats, plasma adrenocortical steroids by ELISA. Conditions: for inhibition of adrenocortical steroid synthesis (FIG. 10): rats, 3 mg/kg IV dose. In general terms: ELISA stands for enzyme-linked immunosorbent assay.
Description: Briefly, rats were pretreated with dexamethasone (0.2 mg/kg intravenously) to reduce endogenous ACTH production and minimize baseline adrenocortical steroid concentrations. Two hours later and after receiving a second dexamethasone dose, rats received ACTH1-24 (IV) and the desired dose of either etomidate or dimethoxy-etomidate solubilized in water containing a 1:1 molar ratio of Captisol (Ligand Pharmaceuticals, San Diego, Calif.) or water containing Captisol vehicle alone as a control. Fifteen minutes later, a blood sample was drawn and ACTH-stimulated adrenocortical steroid concentrations in the plasma were determined using enzyme-linked immunosorbent assays and a 96-well plate reader (Molecular Devices, Sunnyvale, Calif.).
Data set [2] concerns the target T1, 11β-hydroxylase (Homo sapiens, UniProt P15538).
T1 sequence (P15538 25-503): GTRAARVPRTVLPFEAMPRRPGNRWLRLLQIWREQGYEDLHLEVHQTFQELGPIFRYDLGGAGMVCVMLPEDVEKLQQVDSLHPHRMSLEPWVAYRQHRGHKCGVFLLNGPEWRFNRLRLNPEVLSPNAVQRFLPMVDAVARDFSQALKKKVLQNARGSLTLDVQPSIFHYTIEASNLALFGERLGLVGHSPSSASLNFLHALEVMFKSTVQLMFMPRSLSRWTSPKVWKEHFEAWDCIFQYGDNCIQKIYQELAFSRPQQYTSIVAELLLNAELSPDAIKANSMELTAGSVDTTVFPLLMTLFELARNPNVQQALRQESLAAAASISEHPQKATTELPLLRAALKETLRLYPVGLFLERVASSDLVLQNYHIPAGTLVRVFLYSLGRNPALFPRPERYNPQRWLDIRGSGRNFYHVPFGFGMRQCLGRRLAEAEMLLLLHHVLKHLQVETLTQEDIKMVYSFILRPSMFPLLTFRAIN
To be noted: previously reported work; cited from earlier work.

In data set [3] the test system is Sprague-Dawley rats. Description: Myoclonic movements in rats, two-way crossover. Conditions: 3 mg/kg IV; for occurrence of myoclonus and LoRR: 30-minute observation, n=8. The data set is classed as in vivo, rat. Here is the method:
Rats were immediately tested for LoRR and the number of myoclonic events was recorded during each 5-minute epoch for 30 minutes. A myoclonic event was defined as an unproductive (i.e., not associated with LoRR, feeding, or grooming behaviors) movement. Each distinct jerk or tremor constituted a single event. To avoid potentially confounding movements associated with bruxing, boggling, sniffing, and grooming, myoclonus was only considered to occur in the head and jaw when there was the presence of abnormal tongue lolling and jaw movement, or a sharp head movement out of sync with the rats breathing. At the end of the 30-minute observation period, rats were returned to their cages. After a 24-hour recovery period, each rat was crossed over to the other drug group and the experiment repeated.

A further data set has as its target T2, α1β3γ2L GABAA receptor (Homo sapiens, UniProt P14867+P28472).
T2 construct: expressed in transfected cells; host or cells: Xenopus oocytes injected with mRNA
The data set is described as follows: GABAA receptor electrophysiology, potentiation of EC5 GABA-evoked currents in Xenopus oocytes. To be noted: for maximum peak current at high drug concentrations, % of that produced by 1 mM GABA: Hill fit, EC5 GABA + drug. Format: cell-based. Here is the method: Oocytes were then incubated in ND96 buffer (96 mM NaCl, 2 mM KCl, 1.8 mM CaCl2, 1 mM MgCl2, 5 mM HEPES, pH=7.4) containing 0.05 mg/mL of gentamicin for 18 to 48 hours at 18° C. before electrophysiological study. […] For each oocyte, a GABA concentration-peak current response curve was generated to define the GABA concentration that elicits 5% of the current evoked by 1 mM GABA (i.e., EC5 GABA). The effect of drug (etomidate or dimethoxy-etomidate) was then defined in that oocyte by perfusing it with EC5 GABA alone for 15-20 s followed immediately by EC5 GABA+drug at the desired concentration for 20-60 s. The resulting current response was then recorded. The peak current response recorded in the presence of EC5 GABA+drug was then normalized to the peak current response evoked by 1 mM GABA. Between electrophysiological recordings, oocytes were perfused with buffer for at least 3 min to remove GABA (and drug, if present) and to allow receptors to recover from desensitization.
In these fits, the minimum was constrained to 5% (by definition, for EC5 evoked currents).

Data set [4] relates to Sprague-Dawley rats. Description: Loss of righting reflexes (LORR) assay, sedative-hypnotic activity. To be noted: for ED50: Rattus norvegicus, iv, read-out: ED50 for loss of righting reflexes; for dose producing loss of righting reflexes in all rats: IV.
Description: Briefly, the desired dose of drug in dimethyl sulfoxide vehicle (0.1-0.3 mL) was rapidly (<5 s) injected through a 24-gauge intravenous catheter placed in a tail vein. This was followed by a 0.5-mL normal saline flush. Immediately after injection, rats were turned supine. […] The duration of LORR was defined as the time from drug injection until the animal spontaneously righted itself onto all four legs.
The target in data set [5] is T3, 11β-hydroxylase (Rattus norvegicus, UniProt P15393).
T3 construct: tissue BioreclamationlVT; host or cells: membranes (homogenate pellet) from Sprague-Dawley rat adrenal glands
T3 sequence (P15393 25-499): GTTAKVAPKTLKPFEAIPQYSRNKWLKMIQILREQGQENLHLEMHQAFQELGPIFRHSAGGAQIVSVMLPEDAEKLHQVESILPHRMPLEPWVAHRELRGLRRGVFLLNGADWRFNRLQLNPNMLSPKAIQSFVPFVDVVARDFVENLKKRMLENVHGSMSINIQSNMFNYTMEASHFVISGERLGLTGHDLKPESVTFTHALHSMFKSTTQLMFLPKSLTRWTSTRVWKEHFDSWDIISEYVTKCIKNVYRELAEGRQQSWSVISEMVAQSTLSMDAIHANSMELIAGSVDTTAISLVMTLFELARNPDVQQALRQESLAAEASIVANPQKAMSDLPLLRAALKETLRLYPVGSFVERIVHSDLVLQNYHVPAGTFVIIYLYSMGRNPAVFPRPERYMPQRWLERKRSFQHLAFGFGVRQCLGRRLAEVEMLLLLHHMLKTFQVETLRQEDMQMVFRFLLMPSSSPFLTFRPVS
Description: Displacement of [3H]-etomidate from adrenal membranes. The data set is classed as binding. Here is the method:
Briefly, 4 adrenal glands were thawed for each preparation, placed on a glass stand, cut into pieces, and then added to ice-cold preparation buffer (HEPES 10 mM, EDTA 1 mM, leupeptin 10 μg/mL, chymostatin 10 μg/mL, pepstatin A 10 μg/mL, aprotinin 2 μg/mL, polymethanesulfonyl fluoride 1 mM and ethanol 10 μg/mL). After homogenization, carboxylesterases were inactivated by incubating with 1 mM diisopropyl fluorophosphate (Sigma-Aldrich) for 60 min. The mixture was then centrifuged and the resulting pellet was washed twice. The final pellet was then re-suspended in buffer by manual homogenization, passed through a 23-gauge needle three times, aliquoted into 1 mL eppendorf tubes, and stored at −80° C. until used. The protein concentration in these samples was quantified using a Pierce BCA Protein Assay Kit (ThermoFisher, Rockford, Ill., USA). All binding experiments were performed in glass vials at room temperature with the final concentration of protein adjusted to 0.07 mg/mL. The reported data were obtained using 3 separate preparations.
After equilibration, the mixture was passed through a pre-soaked (with 0.5% polyethylenimine in water for 2 h) 25 mm GF/B glass fiber filter under suction, the filter was immediately washed twice with 5 mL of assay buffer. After drying under a heat lamp for two hours, each filter was transferred to a scintillation vial. Liquiscint scintillation cocktail (National Diagnostics, Atlanta, Ga., USA) was added to the vial and the radioactivity in the vial quantified using a Packard Tri-Carb liquid scintillation counter (Meriden, Conn., USA). The concentration-response relationships for inhibition of [^3H]-etomidate by etomidate and dimethoxy-etomidate were fit to one and two site models, respectively, using Prism 6 for Mac OS X.

For data set [6] the following is noted: 50 mg/kg intravenous dose; cited from earlier work.
Where [7] appears, read: 0.3 mg/kg IV, 15 min, vs vehicle control.
Setting [8] is: 3 mg/kg IV, 15 min, vs vehicle control.
The mark [9] stands for this setting: 50 mg/kg IV, vs vehicle control.

T2 sequence (P14867 28-456): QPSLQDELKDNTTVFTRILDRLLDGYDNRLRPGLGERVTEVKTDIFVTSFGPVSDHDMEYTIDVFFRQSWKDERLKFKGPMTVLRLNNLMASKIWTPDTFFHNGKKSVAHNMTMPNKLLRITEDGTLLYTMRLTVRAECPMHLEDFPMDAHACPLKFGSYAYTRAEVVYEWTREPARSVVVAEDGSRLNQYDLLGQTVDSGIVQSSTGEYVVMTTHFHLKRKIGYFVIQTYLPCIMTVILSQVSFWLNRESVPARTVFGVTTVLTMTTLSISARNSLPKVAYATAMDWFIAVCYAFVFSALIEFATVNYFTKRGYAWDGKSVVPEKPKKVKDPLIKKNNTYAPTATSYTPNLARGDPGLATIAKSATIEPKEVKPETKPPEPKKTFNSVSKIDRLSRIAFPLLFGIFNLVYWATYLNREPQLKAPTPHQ
T2 sequence (P28472 26-473): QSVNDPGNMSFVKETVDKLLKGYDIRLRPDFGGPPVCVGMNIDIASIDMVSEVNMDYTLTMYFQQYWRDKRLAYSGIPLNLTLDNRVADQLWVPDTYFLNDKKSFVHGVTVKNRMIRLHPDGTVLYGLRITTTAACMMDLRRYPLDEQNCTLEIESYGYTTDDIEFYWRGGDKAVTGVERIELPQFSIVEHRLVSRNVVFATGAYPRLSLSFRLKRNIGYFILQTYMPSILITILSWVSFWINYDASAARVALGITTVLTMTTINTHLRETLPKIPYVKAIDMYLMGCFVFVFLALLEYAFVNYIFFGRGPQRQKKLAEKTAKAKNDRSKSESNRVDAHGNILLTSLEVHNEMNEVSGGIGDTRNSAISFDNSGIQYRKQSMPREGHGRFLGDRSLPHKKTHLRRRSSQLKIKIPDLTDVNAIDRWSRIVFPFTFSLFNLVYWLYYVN
T2 sequence (P18507 40-475 partner): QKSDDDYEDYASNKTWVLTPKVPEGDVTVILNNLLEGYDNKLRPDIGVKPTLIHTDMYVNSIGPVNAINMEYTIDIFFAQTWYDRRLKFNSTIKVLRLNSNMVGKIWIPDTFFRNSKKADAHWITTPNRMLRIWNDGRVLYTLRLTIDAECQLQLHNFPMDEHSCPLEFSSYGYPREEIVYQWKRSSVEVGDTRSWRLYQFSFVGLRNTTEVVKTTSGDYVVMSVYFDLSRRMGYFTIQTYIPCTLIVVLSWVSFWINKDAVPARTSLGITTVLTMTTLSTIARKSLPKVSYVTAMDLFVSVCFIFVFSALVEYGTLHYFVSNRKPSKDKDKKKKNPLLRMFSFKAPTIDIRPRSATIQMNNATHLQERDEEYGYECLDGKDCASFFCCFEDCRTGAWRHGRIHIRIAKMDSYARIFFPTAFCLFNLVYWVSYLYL

On to `CCOC(=O)c1cncn1[C@H](C)c1ccc2ccccc2c1` [Example 5, ethyl (R)-1-(1-(naphthalen-2-yl)ethyl)-1H-imidazole-5-carboxylate], for which the “inhibition of adrenocortical steroid synthesis (FIG. 10)” value in data set [1] is recorded as “similarly inhibited adrenocortical steroid synthesis”.

For `CCOC(=O)c1cncn1[C@H](C)c1cccc2ccccc12` [Example 4, ethyl (R)-1-(1-(naphthalen-1-yl)ethyl)-1H-imidazole-5-carboxylate], the “inhibition of adrenocortical steroid synthesis (FIG. 10)” value in data set [1] was “similarly inhibited adrenocortical steroid synthesis”.

For `CCOC(=O)c1cccn1[C@H](C)c1ccccc1` [carboetomidate, ethyl (R)-1-(1-phenylethyl)-1H-pyrrole-2-carboxylate], the “binding affinity to 11β-hydroxylase and adrenocortical inhibitory potency relative to etomidate” value on 11β-hydroxylase [2] is recorded as “reduced by three-orders of magnitude”.

With `CCOC(=O)c1cncn1[C@H](C)c1cc(OC)cc(OC)c1` [dimethoxy-etomidate, Ethyl (R)-1-(1-(3,5-dimethoxyphenyl)ethyl)-1H-imidazole-5-carboxylate], the “occurrence of myoclonus and LoRR” value in the data set on Sprague-Dawley rats [3] is “produced no myoclonic events or LoRR in any rat”. Moreover, the concentration for a half-maximal effect (EC50) on α1β3γ2L GABAA receptor amounted to 210000 nM. Also, at α1β3γ2L GABAA receptor (EC5 GABA evoked currents), the “magnitude of peak current enhancement relative to that produced by the same concentration of etomidate” value is recorded as “≤ ⅛”. In addition, on α1β3γ2L GABAA receptor, the “maximum peak current at high drug concentrations, % of that produced by 1 mM GABA” value came out at 11%. Further, the “effect on ACTH-stimulated plasma 11-deoxycorticosterone concentration” value in data set [1] (0.3 mg/kg IV) was “neither etomidate nor dimethoxy-etomidate altered”; in data set [1] (3 mg/kg IV) it was “without significantly affecting”. The “effect on ACTH-stimulated plasma pregnenolone concentration” value in data set [1] (0.3 mg/kg IV) is “neither etomidate nor dimethoxy-etomidate altered”; in data set [1] (3 mg/kg IV) it was “without significantly affecting”; in data set [1] (50 mg/kg IV) it was “unaffected”. In addition, the “effect on ACTH-stimulated plasma progesterone concentration” value is recorded as “neither etomidate nor dimethoxy-etomidate altered” in data set [1] (0.3 mg/kg IV), “without significantly affecting” in data set [1] (3 mg/kg IV) and “unaffected” in data set [1] (50 mg/kg IV). The “ACTH-stimulated plasma corticosterone concentration” value stood at 56 ± 13 ng/mL in data set [1] (0.3 mg/kg IV, 15 min); 19±10 ng/m in data set [1] (3 mg/kg IV, 15 min); 12 ± 1 ng/mL in data set [1] (50 mg/kg IV). Also, the “reduction of ACTH-stimulated plasma corticosterone concentration” value in data set [1] (setting [7]) amounted to 63%; in data set [1] (setting [8]), 87%; in data set [1] (setting [9]), 95%. The “ACTH-stimulated plasma 11-deoxycorticosterone concentration” value in data set [1] (50 mg/kg IV) was 24 ± 12 ng/mL. The “reduction of ACTH-stimulated plasma 11-deoxycorticosterone concentration” value in data set [1] (setting [9]) was determined as 69%. Further, the “time required for righting reflexes to return (LoRR duration)” value in the data set on Sprague-Dawley rats [4] (100 mg/kg IV) was determined as 2.2 ± 0.7 min. In addition, the median effective dose (ED50) with Sprague-Dawley rats [4] came to 72 ± 13 mg/kg. Besides, the “sedative-hypnotic potency compared to etomidate” value in the data set on Sprague-Dawley rats [4] (from LoRR ED50s) is listed as “two order of magnitude reduction”. The “dose producing loss of righting reflexes in all rats” value in the data set with Sprague-Dawley rats [4] is 100 mg/kg. For the same compound, the IC50 on 11β-hydroxylase [5] was 7.9 nM; at 11β-hydroxylase [5] (read-out: IC50 for displacement of [3H]-etomidate, low affinity site, 2 nM [3H]-etomidate, two site fit), 4270 nM. At 11β-hydroxylase [5] (two site fit), the “high affinity site share of all sites” value was 55%.

Regarding `CCOC(=O)c1cncn1[C@H](C)c1ccccc1` [etomidate, ethyl (R)-1-(1-phenylethyl)-1H-imidazole-5-carboxylate, reference compound], the lethality result in data set [6] is “lethal”. Further, the “maximum mean (±SEM) number of myoclonic events per rat” value in the data set with Sprague-Dawley rats [3] (5-10-minute epoch) stood at 13.8±2.2. In the data set on Sprague-Dawley rats [3] (30-minute observation period), the “mean (±SEM) total number of myoclonic events in each rat” value is recorded as 34±2.4. Further, the “occurrence of myoclonus and LoRR” value in the data set with Sprague-Dawley rats [3] was “produced myoclonus and LORR in all rats”. The “maximum peak current at high drug concentrations, % of that produced by 1 mM GABA” value on α1β3γ2L GABAA receptor came out at 103%. In data set [1] (0.3 mg/kg IV), the “effect on ACTH-stimulated plasma 11-deoxycorticosterone concentration” value is “neither etomidate nor dimethoxy-etomidate altered”, the “effect on ACTH-stimulated plasma pregnenolone concentration” value was “neither etomidate nor dimethoxy-etomidate altered” and the “effect on ACTH-stimulated plasma progesterone concentration” value is listed as “neither etomidate nor dimethoxy-etomidate altered”. Also, the “reduction of ACTH-stimulated plasma corticosterone concentration” value in data set [1] (setting [7]) is given as “no significant effect”. For the same compound, in data set [1] (3 mg/kg IV), the “effect on ACTH-stimulated plasma 11-deoxycorticosterone concentration” value was “without significantly affecting”, the “effect on ACTH-stimulated plasma pregnenolone concentration” value was “without significantly affecting” and the “effect on ACTH-stimulated plasma progesterone concentration” value is on record as “without significantly affecting”. Also, in data set [1] (3 mg/kg IV, 15 min), the “ACTH-stimulated plasma corticosterone concentration” value came to 19±11 ng/m. The “reduction of ACTH-stimulated plasma corticosterone concentration” value in data set [1] (setting [8]) is 87%. Besides, the “time required for righting reflexes to return (LoRR duration)” value with Sprague-Dawley rats [4] (3 mg/kg IV, highest etomidate dose studied) was 16.3 ± 0.5 min. For the same compound, in the data set with Sprague-Dawley rats [4], the ED50 came to 0.77 ± 0.17 mg/kg and the “dose producing loss of righting reflexes in all rats” value is reported as not below 1 mg/kg. Also, on 11β-hydroxylase [5], the IC50 was found to be 21 nM.

In general, EC50 refers to the concentration that produces a half-maximal response. Usually ED50 stands for the midpoint of the dose-response relation. What is called IC50 is the midpoint of a concentration-inhibition curve.

(Values after US11098017B2, “Compounds for treating disorders associated with abnormal steroidogenesis” (The General Hospital Corporation, priority 2017, dated 2021).)
